These are literature values, as cited in PMC5358987 (Drug Design, Development and Therapy, 2017).

`O=C(O)[C@@H]1CSC(c2ccc(O)cc2O)N1` (mixture of isomers) [MHY384, (2RS,4R)-2-(2,4-dihydroxyphenyl)thiazolidine-4-carboxylic acid]: the “Tyrosinase inhibition” value in the data set on tyrosinase is listed as “potent competitive tyrosinase inhibitors”. Further, the “Reduction of melanogenesis” value in the data set with HRM2 hairless mice is on record as “effectively reduce melanogenesis”.
